Converted amounts (≈) assume the structure as drawn. Like-named read-outs stand apart in the source and are kept apart here.
What was measured:
[1] = Solubility of the free base; format: physicochemical; conditions: for solubility in ethanol and acetone / solubility in methanol / solubility in organic solvents such as chloroform, benzene, ethyl acetate, butyl acetate, ethyl ether, butanol, petroleum ether, n-hexane / solubility in water: free base
[2] = tested on: Gram-positive and Gram-negative bacteria; experiment: Antibacterial spectrum (summary of Table 3); format: cell-based
Text: (§1) Table 3 illustrates the antibacterial spectra of Fortimicin factors KG1, KG2 and KG3 against various microorganisms.
(§2) (Minimum Inhibitory Concentration, μg/ml measured by
(§3) agar dilution method at pH 8.0)

[3] = tested on: Proteus vulgaris ATCC 6897; experiment: Antibacterial spectrum, agar dilution method; format: cell-based
Text: as §1, §2, §3

Escherichia coli KY8327 = experiment: Antibacterial spectrum, agar dilution method; format: cell-based; conditions: for MIC: Escherichia coli, KY8327, pH 8, Escherichia coli KY8327 (resistant to kanamycin, gentamicin and tobramycin), read-out: Minimum Inhibitory Concentration
Text: as §1, §2, §3

[4] = tested on: Staphylococcus aureus ATCC 6538P; experiment: Antibacterial spectrum, agar dilution method; format: cell-based; conditions: for MIC: Staphylococcus aureus, ATCC6538P, pH 8, Staphylococcus aureus ATCC 6538P, read-out: Minimum Inhibitory Concentration
Text: as §1, §2, §3

[5] = tested on: Pseudomonas aeruginosa BMH#1; experiment: Antibacterial spectrum, agar dilution method; format: cell-based
Text: as §1, §2, §3

Escherichia coli KY8302 = experiment: Antibacterial spectrum, agar dilution method; format: cell-based; conditions: for MIC: Escherichia coli, KY8302, pH 8, Escherichia coli KY8302 (resistant to chloramphenicol, streptomycin, kanamycin, paromomycin, tetracycline and spectinomycin), read-out: Minimum Inhibitory Concentration
Text: as §1, §2, §3

Escherichia coli KY8348 = experiment: Antibacterial spectrum, agar dilution method; format: cell-based; conditions: for Minimum Inhibitory Concentration: Escherichia coli KY8348 (resistant to streptomycin and gentamicin), pH 8.0
Text: as §1, §2, §3

Escherichia coli ATCC 26 = experiment: Antibacterial spectrum, agar dilution method; format: cell-based
Text: as §1, §2, §3

[6] = tested on: Bacillus subtilis No. 10707; experiment: Activity of isolated substance (units per mg), paper disc method; format: cell-based
Protocol: After the completion of fermentation, the culture liquor is adjusted to pH 2.5 with concentrated sulfuric acid and is stirred for 30 minutes. Thereafter, about 7 kg of a filter aid, Radiolite No. 600 (product of Showa Kagaku Kogyo Co., Ltd., Japan) is added to the culture liquor and the microbial cells are removed by filtration. The filtrate is adjusted to pH 7.5 by the addition of 6 N sodium hydroxide, and then flowed through a column packed with about 20 l of a cation exchange resin, Amberlite IRC-50 (ammonium form). The active principles are adsorbed on the resin, and the effluent is discarded. After the resin is washed with water, elution of the active principles is carried out with 1 N aqueous ammonia. The eluate is subjected to determination of activity by a paper disc method using an agar plate of Bacillus subtilis No. 10707. Fractions showing an activity are combined and concentrated under reduced pressure to about 1 l. The concentrate is adjusted to pH 7 with concentrated hydrochloric acid and then flowed through a column packed with 3 l of Amberlite CG-50 (ammonium form). After the resin is washed with water, elution is carried out with 0.1 N NH4 OH containing 0.1 M NH4 Cl. The eluate is taken in 500 ml fractions. Each fraction is subjected to determination of antibacterial activity against Bacillus subtilis No. 10707 and identification of active component by silica gel thin layer chromatography [Developer: the lower layer of a mixed solvent of chloroform, methanol and concentrated aqueous ammonia (2:1:1 by volume), Coloring agent: ninhydrin]. After the volume of the eluate reaches about 3 l, Fortimicin factors KG1, KG2 and KG3 begin to be eluted. The fractions containing Fortimicin factors KG1, KG2 and KG3 are collected, concentrated under reduced pressure to remove ammonia, neutralized with concentrated hydrochloric acid and flowed through a column packed with 500 ml of Amberlite IRC-50 (ammonium form). After the resin is washed with water, elution is carried out with 0.5 N aqueous ammonia. The active fractions are collected, concentrated under reduced pressure and freeze-dried to obtain 2 g of a white powder. The powder contains in it 250 mg of Fortimicin KG1, 640 mg of Fortimicin KG2 and 330 mg of Fortimicin KG3.
2 g of the crude powder is placed on a silica gel column (Silica gel: produced by Wako Junyaku Co., Ltd., Japan, Diameter of column: about 3 cm). Development is carried out with the lower layer of a mixed solvent of chloroform, methanol and concentrated aqueous ammonia (3:1:1 by volume). The eluate is taken in 20 ml fractions. Each fraction is subjected to the silica gel thin layer chromatography. First, Fortimicin B is eluted and then Fortimicin factors KG2, KG1 and KG3 are eluted in this order. The fractions respectively containing Fortimicin factors KG1, KG2 and KG3 are collected, concentrated under reduced pressure and freeze-dried to obtain 200 mg of Fortimicin KG1, [Activity: 970 u/mg (u: unit)], 500 mg of Fortimicin KG2 (Activity: 970 u/mg) and 250 mg of Fortimicin KG3 (Activity: 950 u/mg) (Activity of each of the purified substances is considered to be 1000 u/mg).

[7] = tested on: Bacillus subtilis No. 10707; experiment: Antibacterial spectrum, agar dilution method; format: cell-based; conditions: pH 8.0, read-out: Minimum Inhibitory Concentration
Text: as §1, §2, §3

[8] = tested on: Salmonella typhosa ATCC 9992; experiment: Antibacterial spectrum, agar dilution method; format: cell-based; conditions: Salmonella enterica, pH 8, read-out: Minimum Inhibitory Concentration
Text: as §1, §2, §3

[9] = tested on: Shigella sonnei ATCC 9290; experiment: Antibacterial spectrum, agar dilution method; format: cell-based; conditions: ATCC9290, pH 8.0, read-out: Minimum Inhibitory Concentration
Text: as §1, §2, §3

[10] = tested on: Klebsiella pneumoniae ATCC 10031; experiment: Antibacterial spectrum, agar dilution method; format: cell-based; conditions: ATCC10031, pH 8.0, read-out: Minimum Inhibitory Concentration
Text: as §1, §2, §3

[11] = tested on: certain strains of Escherichia coli which are resistant to various antibiotics; experiment: Antibacterial activity against resistant strains (summary of Table 3); format: cell-based
Text: as §1, §2, §3

[12] = Acute toxicity, intravenous administration in mice; conditions: mouse, in vivo
[13] = Pseudomonas aeruginosa BMH#1, pH 8.0, read-out: Minimum Inhibitory Concentration
[14] = after silica gel chromatography, pure substance considered 1000 u/mg
[15] = ATCC6897, Proteus vulgaris ATCC 6897, pH 8.0, read-out: Minimum Inhibitory Concentration

CNC1C(O)C(OC2OC(C(C)N)=CCC2N)C(N)C(O)C1OC (stereo not drawn) [Fortimicin KG1]
solubility in ethanol and acetone [1]: slightly soluble | solubility in methanol [1]: soluble | solubility in organic solvents such as chloroform, benzene, ethyl acetate, butyl acetate, ethyl ether, butanol, petroleum ether, n-hexane [1]: insoluble | solubility in water [1]: readily soluble | solubility in the ordinary organic solvents [1]: poorly soluble | antibacterial activity / spectrum (in words) [2]: broad antibacterial spectrum | MIC ([3]; Proteus vulgaris, ATCC6897, pH 8, read-out: Minimum Inhibitory Concentration, Proteus vulgaris ATCC 6897): 26.1 µg/mL (≈ 75.3 µM) | MIC (Escherichia coli KY8327): 26.1 µg/mL (≈ 75.3 µM) | MIC [4]: 13.1 µg/mL (≈ 37.8 µM) | MIC [5, 13]: > 208 µg/mL | MIC (Escherichia coli KY8302): 26.1 µg/mL (≈ 75.3 µM) | Minimum Inhibitory Concentration (Escherichia coli KY8348): 26.1 µg/mL | MIC (Escherichia coli ATCC 26; Escherichia coli, ATCC26, pH 8, read-out: Minimum Inhibitory Concentration, Escherichia coli ATCC 26): 26.1 µg/mL (≈ 75.3 µM) | Activity [6, 14]: 970 u/mg

CNC1C(O)C(OC2OC(C(C)N)=CCC2N)C(N)C(O)C1OC (stereo not drawn) [Fortimicin KG2]
solubility in ethanol and acetone [1]: slightly soluble | solubility in methanol [1]: soluble | solubility in organic solvents such as chloroform, benzene, ethyl acetate, butyl acetate, ethyl ether, butanol, petroleum ether, n-hexane [1]: insoluble | solubility in water [1]: readily soluble | solubility in the ordinary organic solvents [1]: poorly soluble | antibacterial activity / spectrum (in words) [2]: broad antibacterial spectrum | MIC [3, 15]: 83.3 µg/mL (≈ 240 µM) | Minimum Inhibitory Concentration (Escherichia coli KY8327; Escherichia coli KY8327 (resistant to kanamycin, gentamicin and tobramycin), pH 8.0): 20.9 µg/mL | Minimum Inhibitory Concentration ([4]; Staphylococcus aureus ATCC 6538P, pH 8.0): 10.5 µg/mL | MIC ([5]; Pseudomonas aeruginosa, pH 8, read-out: Minimum Inhibitory Concentration, Pseudomonas aeruginosa BMH#1): > 167 µg/mL | Minimum Inhibitory Concentration (Escherichia coli KY8302; Escherichia coli KY8302 (resistant to chloramphenicol, streptomycin, kanamycin, paromomycin, tetracycline and spectinomycin), pH 8.0): 41.7 µg/mL | Minimum Inhibitory Concentration (Escherichia coli KY8348): 166.6 µg/mL | Minimum Inhibitory Concentration (Escherichia coli ATCC 26; Escherichia coli ATCC 26, pH 8.0): 41.7 µg/mL | Activity [6, 14]: 970 u/mg

COC1C(O)C(N)C(OC2OC(C(C)N)=CCC2N)C(O)C1N(C)C(=O)CN (stereo not drawn) [Fortimicin KG3]
solubility in ethanol and acetone [1]: slightly soluble | solubility in methanol [1]: soluble | solubility in organic solvents such as chloroform, benzene, ethyl acetate, butyl acetate, ethyl ether, butanol, petroleum ether, n-hexane [1]: insoluble | solubility in water [1]: readily soluble | solubility in the ordinary organic solvents [1]: poorly soluble | antibacterial activity / spectrum (in words) [2]: strong antibacterial activity against a broad range of Gram-positive and Gram-negative bacteria | MIC [3, 15]: 0.66 µg/mL (≈ 1.64 µM) | MIC [7]: < 0.045 µg/mL | MIC (Escherichia coli KY8327): 0.33 µg/mL (≈ 0.818 µM) | MIC [4]: 0.083 µg/mL (≈ 0.206 µM) | MIC [5, 13]: 5.2 µg/mL (≈ 12.9 µM) | MIC (Escherichia coli KY8302): 0.52 µg/mL (≈ 1.29 µM) | MIC [8]: 0.18 µg/mL (≈ 0.446 µM) | MIC (Escherichia coli KY8348; Escherichia coli, KY8348, pH 8, Escherichia coli KY8348 (resistant to streptomycin and gentamicin), read-out: Minimum Inhibitory Concentration): 10.4 µg/mL (≈ 25.8 µM) | MIC (Escherichia coli ATCC 26; ATCC26, Escherichia coli ATCC 26, pH 8.0, read-out: Minimum Inhibitory Concentration): 0.33 µg/mL (≈ 0.818 µM) | MIC [9]: 0.7 µg/mL (≈ 1.73 µM) | MIC [10]: 0.18 µg/mL (≈ 0.446 µM) | Activity [6, 14]: 950 u/mg | effectiveness against resistant Escherichia coli (in words) [11]: effective against certain strains of Escherichia coli which are resistant to various antibiotics | LD50 [12]: 225 mg/kg

CNC1C(O)C(OC2OC(C(C)N)=CCC2N)C(N)C(O)C1OC (stereo not drawn) [sulfate of Fortimicin KG1]
Activity ([6]; sulfate, u: unit): 620 u/mg

CNC1C(O)C(OC2OC(C(C)N)=CCC2N)C(N)C(O)C1OC (stereo not drawn) [sulfate of Fortimicin KG2]
Activity ([6]; sulfate, u: unit): 620 u/mg

COC1C(O)C(N)C(OC2OC(C(C)N)=CCC2N)C(O)C1N(C)C(=O)CN (stereo not drawn) [sulfate of Fortimicin KG3]
Activity ([6]; sulfate, u: unit): 650 u/mg

From patent US4241182A, “Fortimicin factors KG1, KG2 and KG3 and processes for production thereof” (Kyowa Hakko Kogyo Co., Ltd., priority 1978, dated 1980)
